Columns and labels:
Type in all cases: cell-based
HeLa cells [1] = assay: Automated Hoechst image analysis of HeLa cells treated with 6 known compounds; conditions: 10 ug/mL, 24 hours, 10x objective, FIG. 11
Source text: In a third experiment, the purpose was to determine whether the automated analysis methods developed in the first experiment can detect differences in Hoechst morphology in the presence of 6 known compounds at one concentration and exposure time in one cell line. In this experiment, HeLa cells were separately treated with 6 compounds with known mechanism of action. The quantitative methods described in the first experiment were applied to the Hoechst images.
Approximately 5,000 HeLa cells per well were plated in a Costar black-walled 96 well tissue culture treated plate and left to recover in the incubator for 24 hours. After this time, 10 ug/mL of cytochalasin D (CD), Taxol, hydroxyurea, vinblastine, nocodazole, and staurosporine was added to different wells at a 1:100 addition in DMSO. The cells were incubated in the presence of drug for 24 more hours. After 24 hours, the cells were removed and fixed as in the first experiment. Then, 9 images per well were collected of the Hoechst staining using a 10× objective.
The low magnification images taken of Hoechst were run through the automated image analysis method described in the first experiment. Plots of the average intensity and area were made of each compound. […] The scatter plots of each compound are visually distinct. […] Furthermore, the number of cells per well was very different (data not shown).

MDCK cells = assay: Effects of Taxol on MDCK cells, Hoechst morphologies manually counted; conditions: 4.5 hours, 10 μM-1pM, FIG. 10
Protocol: In a second experiment, the effects of Taxol on MDCK cells and the different types of morphological effects were observed. A plurality of MDCK cells grown in 96 well plates were treated with Taxol for 4.5 hours at different concentrations (10 μM−1pM). They were then fixed, labeled with Hoechst, and imaged.
This experiment used a labeling protocol comprising: MEOH fix at −20°, Wash in PBS, Block in PBS/BSA/Serum/Triton-X 100, Incubate with 5 μg/ml Hoechst 10 minutes, and wash.
Cells were inspected for different morphologies and manually counted at each different drug concentration in one well. […] The next step is to test the automated Hoechst analysis of the first experiment with multiple drugs.

HeLa cells [2] = assay: High magnification Hoechst and phalloidin images of HeLa cells in the presence of drugs; conditions: 10 ug/mL, 24 hours, 40x objective, vs DMSO control, FIG. 12
Protocol: A fourth experiment was performed to obtain high magnification images of two markers in the presence of drugs. In this experiment, HeLa cells were treated with 80 generic compounds with known mechanism of action. The quantitative methods described in the first experiment were applied to the Hoechst images.
Approximately 5,000 HeLa cells per well were plated in a Costar black walled 96 well tissue culture-treated plate and left to recover in the incubator for 24 hours. After this time, 10 ug/mL of each compound from the Killer Plate from Microsource Discovery Systems (Gaylordsville, Conn.) was added to different wells at a 1:100 addition in DMSO. The cells were incubated in the presence of drug for 24 more hours. After 24 hours, the cells were removed and fixed as in the first experiment. In addition to being labeled with Hoechst 33342 (against chromatin), cells were also labeled with 1 unit of rhodamine-conjugated phalloidin (against actin) for 30 minutes.
The 96 well plate was imaged twice. Once, 9 images per well were collected of the Hoechst staining using a 10× objective. After this, one image per well of both the phalloidin and Hoechst staining was collected using a 40× objective.
The resulting high magnification images were analyzed qualitatively and distinct pattern differences were detected in both the Hoechst and phalloidin images. […] The top row is the Hoechst staining, and the bottom row is the phalloidin staining from the same well. The columns show the images from wells treated with just DMSO (control), cytochalasin D, and Colchicine. Notice that the morphology of each marker is different in the presence of each drug.

| Structure (SMILES) | cell (Hoechst object) size/area compared to control (HeLa cells [1]) | actin cytoskeleton morphology in the phalloidin image (HeLa cells [2]) | other results |
| --- | --- | --- | --- |
| NC(=O)NO [Hydroxyurea, hydroxyurea] | larger |  | brightness (average Hoechst intensity) compared to control (HeLa cells [1]): brighter |
| CC(=O)O[C@H]1C(=O)[C@@]2(C)[C@H]([C@H](OC(=O)c3ccccc3)[C@]3(O)C[C@H](OC(=O)[C@H](O)[C@@H](NC(=O)c4ccccc4)c4ccccc4)C(C)=C1C3(C)C)[C@]1(OC(C)=O)CO[C@@H]1C[C@@H]2O [Taxol, paclitaxel] |  |  | number of normal mitotic cells as a function of drug concentration (MDCK cells): fewer number of normal mitotic cells were detected; proportion of cells undergoing apoptosis as a function of drug concentration (MDCK cells): larger proportion of cells underwent apoptosis |
| COc1cc2c(c(OC)c1OC)-c1ccc(OC)c(=O)cc1[C@@H](NC(C)=O)CC2 [colchicine] |  | there is an effect on the actin cytoskeleton |  |
| C=C1[C@@H](C)[C@H]2[C@H](Cc3ccccc3)NC(=O)[C@]23[C@H](OC(C)=O)/C=C/[C@@](C)(O)C(=O)[C@@H](C)C/C=C/[C@H]3[C@@H]1O [cytochalasin D] | smaller than control | expected effect in the phalloidin image | morphology of the chromatin in the Hoechst image (HeLa cells [2]): there is an effect in the morphology of the chromatin |
